Laboratory results as given in US4778817A, “Naphthyl imidazolyl compounds and pharmaceutical compositions” (priority 1985, dated 1988).
pIC50: −log10 of the molar value. Counter-ions that a name gives are not always drawn.

Assays:
[1] = test system: Thrombin-induced TXA2 release; experiment: Thrombin-induced TXA2 release in platelet-rich human plasma in vitro (TXB2 determined radioimmunologically); type: cell-based; conditions: 0.5 h, relative to without test substance (=100%); for activity at 1 µM: test substance 10^-6 mol/l; for activity at 0.1 µM: test substance 10^-7 mol/l
Method: 2. Thrombin-induced TXA2 release in platelet-rich human plasma in vitro
Blood is taken, by careful cannulation of the antecubital vein, from apparently healthy male and female volunteers, who have taken no medicaments in the preceding 10-day period, and is immediately stabilized with sodium citrate (ad. 0.38%). Platelet-rich plasma (PRP) is obtained in the supernatant by centrifugation at 140×g for 15 minutes, and the platelet content of this should be in the range 2.5-3.5×10^8 /ml. The platelets are sedimented by renewed centrifugation (10 min at 2,000×g), and then resolubilized in Tyrode's solution (about 7×10^7 platelets/ml, total volume per measurement 0.5 ml). After addition of test substance, the mixture is incubated at 37° C. for 10 min, and then 7.2×10^-7 M arachidonic acid and 0.5 U thrombin are added, and incubation is carried out at 37° C. for 30 min. This is stopped in an ice bath and, after addition of tracer and TXB2 -specific antibodies (NEN, Dreieich), the TXB2 content is determined radioimmunologically (TXA2 is unstable under the experimental conditions and thus cannot be measured. The stable hydrolysis product TXB2 is measured in its place). The measured variable is the relative TXB2 content in the platelet incubations from two or three different donors with and without (=100%) the test substance.
The following figures for the TXB2 release after administration of the test substance were determined, for example, for the compounds according to the invention by the method described above: […]

[2] = test system: human platelets; experiment: Inhibition of the arachidonic acid-induced aggregation of human platelets in vitro; type: cell-based; conditions: human platelet-rich plasma; 2×10^-4 M arachidonic acid; preincubation 10 min at 37° C.
Method: 1. Inhibition of the arachidonic acid-induced aggregation of human platelets in vitro.
Blood is taken, by careful cannulation of the antecubital vein, from apparently healthy male and female volunteers, who have taken no medicaments in the preceding 10-day period, and is immediately stabilized with sodium citrate (ad. 0.38%). Platelet-rich plasma (PRP) is obtained in the supernatant by centrifugation at 140×g for 15 minutes, and the platelet content of this should be in the range 2.5-3.5×10^8 /ml (Coulter counter). The platelet aggregation is followed optically by measurement of the transmission of light in a Born aggregometer. The total volume of the test mix is 0.25 ml. The preincubation time at 37° C. with the test product is 10 min, and aggregation is then induced with 2×10^-4 M arachidonic acid. The test product is, as a rule, tested in five different concentrations in the PRP from three different donors. Dose-effect curves are drawn from the maximal aggregation amplitudes in each case, and the IC50 values* are determined graphically. The measurements are carried out in the period 1-6 hours after blood sampling. […]
The following IC50 values for the inhibition of the arachidonic acid-induced aggregation of human platelets in vitro were determined by the method described above for the compounds according to the invention: […]

[3] = test system: laser-induced thrombosis; experiment: Inhibition of laser-induced thrombosis; type: in vivo, Sprague-Dawley rats; conditions: one hour before start, rat mesentery arterioles
Method: 3. Inhibition of laser-induced thrombosis
The investigations of the compounds according to the invention in the model of laser-induced thrombosis are carried out on male or female Sprague-Dawley rats with a body weight of about 200 g. The animals to be investigated are premedicated s.c. with 0.1 mg of atropine sulfate in solution, and anesthetized i.p. with 100 mg of ketamine hydrochloride and 4 mg of xylazine per kg of body weight. Arterioles from the mesentery, with a diameter of 12-25 μm, are used for the investigation. During the measurement, the exposed mesentery is hyperfused with warmed physiological NaCl (37° C.) or is covered with degassed liquid paraffin. The beam of a 4 W argon laser (supplied by Spectra Physics, Darmstadt, FRG) is introduced coaxially into the inverted ray path of a microscope (ICM 405, LD-Epilan 40/0.60; supplied by Zeiss, Oberkochen, FRG) by means of a ray adaptation and adjustment system (supplied by BTG, Munich, FRG). The wavelength used is 514.5 nm, with an energy above the objective of 40 mW. The single-shot exposure time is 1/15 sec. The diameter of the effective laser beam on the vessel is 10 μm, and with repeated exposure the next shot takes place 5 μm upstream in each case, directly on the vessel wall. All the measurement procedures are filmed by video camera (Sony, Trinicon tube) and stored in a recorder (Sony, U-matic 3/4). A survey image of the terminal vessels which are to be investigated is provided by the transillumination method using the same microscope with low magnification (LD-Epilan 8/0.20). A video-analyzer and a correlator are used to determine the rate of flow in the arterioles under investigation. […]
The number of shots needed to induce a defined thrombus was counted. The frequency of the laser flashes was one lesion every 2 minutes, all the thrombi with a minimum size of 1/4 of the vessel radius which were formed during the observation period being counted and measured. The results of the experiment were statistically analyzed using the X^2 test (L. Cavalli-Sforza, Biometrie, Stuttgart, 1969, page 49 et seq.).

Row | SMILES | activity at 1 µM [1] | activity at 0.1 µM [1] | pIC50 [2] | activity at 0.01 µM ([1]; test substance 10^-8 mol/l) | Number of laser shots to form a thrombus (compared with control) ([3]; 1 mg/kg p.o.) | Number of laser shots to form a thrombus (compared with control) ([3]; 5 mg/kg p.o.) | Number of laser shots to form a thrombus (compared with control) ([3]; 10 mg/kg p.o.)
1 | CC(c1ccc2cc(C(=O)O)ccc2c1)n1ccnc1 (stereo not shown) [Example 2, 6-[1-(1-Imidazolyl)ethyl]-2-naphthoic acid hydrochloride] | 31% | 55% | 5.52 |  |  |  | 
2 | Cc1cncn1Cc1ccc2cc(C(=O)O)ccc2c1.Cl [Example 4, 6-(5-Methyl-1-imidazolyl)methyl-2-naphthoic acid hydrochloride] | 9% | 19% | 6.27 | 98% | +16% | +53% | +96%
